One block for each compound: values may come before it. Calls of active or inactive are those of the source.
Assays:
[1] = biological target: Serine/threonine-protein phosphatase (Homo sapiens, UniProt Q9BPW0); assay: PP5 phosphatase inhibitors, dose response, biochemical, fluorescence (AID 2395)
[2] = biological target: T1, Sentrin-specific protease 7 (Homo sapiens, UniProt Q9BQF6); format: functional;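 also: Luminescence-based dose-response confirmation of ultra-high-throughput screening hits, measuring inhibition of SENP7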
T1 sequence (Q9BQF6 whole entry): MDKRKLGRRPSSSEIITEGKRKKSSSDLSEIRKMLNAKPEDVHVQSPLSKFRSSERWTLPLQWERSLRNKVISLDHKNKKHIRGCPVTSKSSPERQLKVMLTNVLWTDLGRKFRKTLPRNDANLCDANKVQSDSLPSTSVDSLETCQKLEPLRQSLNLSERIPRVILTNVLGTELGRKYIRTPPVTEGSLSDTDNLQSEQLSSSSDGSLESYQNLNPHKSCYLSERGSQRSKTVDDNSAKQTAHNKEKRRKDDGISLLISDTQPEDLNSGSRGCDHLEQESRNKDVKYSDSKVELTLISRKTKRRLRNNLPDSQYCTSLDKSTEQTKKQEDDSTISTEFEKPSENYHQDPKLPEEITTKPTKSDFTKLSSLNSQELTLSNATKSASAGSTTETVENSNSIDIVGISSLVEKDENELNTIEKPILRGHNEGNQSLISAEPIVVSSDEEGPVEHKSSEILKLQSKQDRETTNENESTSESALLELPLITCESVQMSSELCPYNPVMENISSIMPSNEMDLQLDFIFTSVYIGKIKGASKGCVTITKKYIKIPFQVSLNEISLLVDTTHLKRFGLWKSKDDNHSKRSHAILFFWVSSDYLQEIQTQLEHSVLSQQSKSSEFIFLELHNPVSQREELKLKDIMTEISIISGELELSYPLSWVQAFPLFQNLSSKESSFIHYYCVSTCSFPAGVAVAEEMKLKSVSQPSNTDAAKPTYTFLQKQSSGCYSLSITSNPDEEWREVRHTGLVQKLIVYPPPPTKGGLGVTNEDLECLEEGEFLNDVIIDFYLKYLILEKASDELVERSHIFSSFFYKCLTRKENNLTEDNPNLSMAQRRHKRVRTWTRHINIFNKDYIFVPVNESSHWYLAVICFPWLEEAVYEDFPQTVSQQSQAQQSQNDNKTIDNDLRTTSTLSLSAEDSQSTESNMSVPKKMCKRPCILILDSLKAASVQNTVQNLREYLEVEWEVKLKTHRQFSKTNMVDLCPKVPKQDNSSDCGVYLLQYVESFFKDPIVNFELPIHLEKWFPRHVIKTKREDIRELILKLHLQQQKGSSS

[3] = biological target: T2, Apoptotic protease-activating factor 1 (Homo sapiens, UniProt O14727); format: functional
T2 sequence (O14727 whole entry): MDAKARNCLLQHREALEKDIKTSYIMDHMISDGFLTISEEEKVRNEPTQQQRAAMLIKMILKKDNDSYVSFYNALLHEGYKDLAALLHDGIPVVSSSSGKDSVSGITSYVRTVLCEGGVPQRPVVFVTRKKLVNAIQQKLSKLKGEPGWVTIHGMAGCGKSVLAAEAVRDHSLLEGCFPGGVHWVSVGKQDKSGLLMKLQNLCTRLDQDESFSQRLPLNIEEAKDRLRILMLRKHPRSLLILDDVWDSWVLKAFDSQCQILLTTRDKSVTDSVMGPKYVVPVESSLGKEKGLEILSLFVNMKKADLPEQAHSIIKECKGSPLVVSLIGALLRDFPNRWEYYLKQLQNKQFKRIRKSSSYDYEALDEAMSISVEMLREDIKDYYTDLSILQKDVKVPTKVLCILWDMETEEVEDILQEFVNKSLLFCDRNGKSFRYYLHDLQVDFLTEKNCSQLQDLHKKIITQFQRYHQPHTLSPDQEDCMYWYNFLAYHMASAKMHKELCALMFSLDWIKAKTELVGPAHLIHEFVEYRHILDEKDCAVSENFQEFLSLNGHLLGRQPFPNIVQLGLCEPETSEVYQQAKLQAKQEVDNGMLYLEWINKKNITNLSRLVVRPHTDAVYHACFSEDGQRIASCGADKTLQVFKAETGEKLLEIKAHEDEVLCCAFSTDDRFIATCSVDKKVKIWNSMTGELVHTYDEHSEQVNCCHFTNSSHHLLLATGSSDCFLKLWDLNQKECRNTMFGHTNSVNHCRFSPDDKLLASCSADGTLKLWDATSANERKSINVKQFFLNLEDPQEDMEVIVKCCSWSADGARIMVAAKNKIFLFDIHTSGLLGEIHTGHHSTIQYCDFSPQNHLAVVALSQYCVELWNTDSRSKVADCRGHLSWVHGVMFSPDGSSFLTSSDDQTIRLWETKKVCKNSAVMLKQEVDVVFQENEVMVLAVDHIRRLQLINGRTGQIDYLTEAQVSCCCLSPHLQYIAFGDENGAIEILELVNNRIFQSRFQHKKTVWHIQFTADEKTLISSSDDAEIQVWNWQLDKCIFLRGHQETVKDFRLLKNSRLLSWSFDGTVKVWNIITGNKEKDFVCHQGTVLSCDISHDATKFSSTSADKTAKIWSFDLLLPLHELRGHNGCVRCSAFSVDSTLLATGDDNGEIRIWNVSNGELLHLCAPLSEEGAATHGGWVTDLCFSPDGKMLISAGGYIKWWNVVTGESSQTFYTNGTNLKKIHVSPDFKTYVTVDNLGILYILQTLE

[4] = biological target: T3, Caspase-3 (Homo sapiens, UniProt P42574); assay: SAR Analysis of small molecule inhibitors of Sentrin-specific proteases (SENPs) using a Caspase-3 Selectivity assay. [Related pubchem assays (depositor defined):AID2540, AID2599, AID434973, AID489001]; format: functional
T3 sequence (P42574 whole entry): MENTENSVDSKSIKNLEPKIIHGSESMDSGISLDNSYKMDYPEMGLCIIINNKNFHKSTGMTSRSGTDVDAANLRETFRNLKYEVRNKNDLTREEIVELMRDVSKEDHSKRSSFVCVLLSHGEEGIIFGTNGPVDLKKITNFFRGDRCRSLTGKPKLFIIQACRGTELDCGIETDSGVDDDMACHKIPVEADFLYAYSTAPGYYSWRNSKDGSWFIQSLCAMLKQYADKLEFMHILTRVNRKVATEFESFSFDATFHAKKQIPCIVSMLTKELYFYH

[5] = biological target: Dual specificity mitogen-activated protein kinase kinase 1 (Homo sapiens, UniProt Q02750); assay: Navigating the Kinome. Panel member name: MAP2K1; format: functional
[6] = biological target: 5'-AMP-activated protein kinase catalytic subunit alpha-1 (Homo sapiens, UniProt Q13131); format: functional
[7] = biological target: Mitogen-activated protein kinase kinase kinase kinase 2 (Homo sapiens, UniProt Q12851); format: functional;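 also: measured as one member of a kinome-wide kinase panel, with MAP4K2 as the panel entry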
[8] = biological target: Cyclin-dependent kinase 5 (Homo sapiens, UniProt Q00535); format: functional;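 also: CDK5 measured as one member of a kinase profiling panel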
[9] = biological target: Calcium/calmodulin-dependent protein kinase type II subunit alpha (Homo sapiens, UniProt Q9UQM7); assay: Navigating the Kinome. Panel member name: CAMK2A; format: functional
[10] = system: HeLa; assay: HeLa cell cytotoxicity, dose response, cytotoxicity control, 24 h, cherry-picked samples (AID 504726); format: functional, cell-based; conditions: Homo sapiens;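 also: potency for cytotoxicity as loss of luminescence signal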

Cyclin-dependent kinase 5, sequence (Q00535 whole entry): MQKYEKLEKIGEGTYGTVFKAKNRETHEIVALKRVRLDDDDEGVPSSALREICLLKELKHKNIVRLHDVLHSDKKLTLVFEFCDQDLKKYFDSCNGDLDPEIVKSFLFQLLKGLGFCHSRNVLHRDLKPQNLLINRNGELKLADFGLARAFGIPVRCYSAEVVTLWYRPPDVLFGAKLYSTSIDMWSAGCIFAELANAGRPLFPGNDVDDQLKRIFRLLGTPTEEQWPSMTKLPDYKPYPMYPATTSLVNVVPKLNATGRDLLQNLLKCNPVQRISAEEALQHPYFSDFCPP
Dual specificity mitogen-activated protein kinase kinase 1, sequence (Q02750 whole entry): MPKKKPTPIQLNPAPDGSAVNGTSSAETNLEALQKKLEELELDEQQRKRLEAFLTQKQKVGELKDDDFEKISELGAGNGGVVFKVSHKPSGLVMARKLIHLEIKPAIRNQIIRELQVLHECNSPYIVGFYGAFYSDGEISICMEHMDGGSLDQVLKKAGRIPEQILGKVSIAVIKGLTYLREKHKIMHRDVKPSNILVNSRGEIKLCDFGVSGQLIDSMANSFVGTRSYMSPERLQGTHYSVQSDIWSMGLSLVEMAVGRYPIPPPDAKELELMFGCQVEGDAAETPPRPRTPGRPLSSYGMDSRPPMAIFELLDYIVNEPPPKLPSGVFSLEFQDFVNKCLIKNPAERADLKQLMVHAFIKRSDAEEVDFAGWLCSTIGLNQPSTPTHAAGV
Serine/threonine-protein phosphatase, sequence (Q9BPW0 whole entry): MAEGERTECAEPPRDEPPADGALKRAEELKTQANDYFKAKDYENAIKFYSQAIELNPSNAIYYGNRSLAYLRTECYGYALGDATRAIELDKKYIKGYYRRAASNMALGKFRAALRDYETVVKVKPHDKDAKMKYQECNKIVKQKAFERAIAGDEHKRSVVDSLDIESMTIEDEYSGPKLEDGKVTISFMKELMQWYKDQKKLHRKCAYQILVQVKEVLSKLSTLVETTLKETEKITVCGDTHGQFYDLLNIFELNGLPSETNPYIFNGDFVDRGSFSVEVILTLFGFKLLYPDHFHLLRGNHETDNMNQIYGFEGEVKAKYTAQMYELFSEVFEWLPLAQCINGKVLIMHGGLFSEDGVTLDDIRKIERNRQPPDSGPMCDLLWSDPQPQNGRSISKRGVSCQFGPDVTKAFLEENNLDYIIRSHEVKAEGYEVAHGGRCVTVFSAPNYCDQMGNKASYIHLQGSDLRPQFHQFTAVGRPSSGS
Calcium/calmodulin-dependent protein kinase type II subunit alpha, sequence (Q9UQM7 whole entry): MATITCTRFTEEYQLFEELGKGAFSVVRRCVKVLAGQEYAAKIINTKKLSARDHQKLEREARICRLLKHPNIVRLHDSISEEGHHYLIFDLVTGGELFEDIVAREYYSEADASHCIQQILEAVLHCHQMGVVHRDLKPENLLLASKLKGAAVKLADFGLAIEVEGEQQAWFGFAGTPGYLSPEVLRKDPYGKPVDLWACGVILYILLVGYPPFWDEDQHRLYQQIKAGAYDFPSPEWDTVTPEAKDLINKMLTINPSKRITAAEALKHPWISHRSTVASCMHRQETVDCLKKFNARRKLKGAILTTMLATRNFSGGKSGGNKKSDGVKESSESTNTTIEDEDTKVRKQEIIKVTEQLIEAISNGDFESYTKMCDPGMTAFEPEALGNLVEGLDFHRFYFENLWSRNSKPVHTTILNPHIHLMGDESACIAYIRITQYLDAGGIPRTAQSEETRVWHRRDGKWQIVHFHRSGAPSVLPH
Mitogen-activated protein kinase kinase kinase kinase 2, sequence (Q12851 whole entry): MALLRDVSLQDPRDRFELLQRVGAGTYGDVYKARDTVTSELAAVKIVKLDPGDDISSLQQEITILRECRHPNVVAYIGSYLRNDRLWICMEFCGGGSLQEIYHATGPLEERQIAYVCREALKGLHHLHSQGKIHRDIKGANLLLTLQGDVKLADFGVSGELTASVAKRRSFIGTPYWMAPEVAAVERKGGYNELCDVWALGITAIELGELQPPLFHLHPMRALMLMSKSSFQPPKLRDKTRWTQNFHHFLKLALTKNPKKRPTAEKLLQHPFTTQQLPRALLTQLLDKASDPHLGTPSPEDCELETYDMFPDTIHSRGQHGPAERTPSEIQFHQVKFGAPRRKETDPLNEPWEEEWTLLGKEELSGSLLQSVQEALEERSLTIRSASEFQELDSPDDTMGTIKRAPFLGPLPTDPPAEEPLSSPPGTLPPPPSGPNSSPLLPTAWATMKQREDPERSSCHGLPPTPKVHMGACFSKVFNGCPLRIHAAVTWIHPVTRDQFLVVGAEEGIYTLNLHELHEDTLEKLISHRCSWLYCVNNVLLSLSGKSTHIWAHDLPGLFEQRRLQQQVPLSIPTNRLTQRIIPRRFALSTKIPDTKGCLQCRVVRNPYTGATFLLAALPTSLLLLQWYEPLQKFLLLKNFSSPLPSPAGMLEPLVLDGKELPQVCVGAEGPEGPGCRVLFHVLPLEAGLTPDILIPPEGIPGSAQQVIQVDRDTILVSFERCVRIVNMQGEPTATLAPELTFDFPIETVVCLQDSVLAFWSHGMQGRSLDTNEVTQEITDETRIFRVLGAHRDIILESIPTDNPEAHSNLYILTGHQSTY
5'-AMP-activated protein kinase catalytic subunit alpha-1, sequence (Q13131 whole entry): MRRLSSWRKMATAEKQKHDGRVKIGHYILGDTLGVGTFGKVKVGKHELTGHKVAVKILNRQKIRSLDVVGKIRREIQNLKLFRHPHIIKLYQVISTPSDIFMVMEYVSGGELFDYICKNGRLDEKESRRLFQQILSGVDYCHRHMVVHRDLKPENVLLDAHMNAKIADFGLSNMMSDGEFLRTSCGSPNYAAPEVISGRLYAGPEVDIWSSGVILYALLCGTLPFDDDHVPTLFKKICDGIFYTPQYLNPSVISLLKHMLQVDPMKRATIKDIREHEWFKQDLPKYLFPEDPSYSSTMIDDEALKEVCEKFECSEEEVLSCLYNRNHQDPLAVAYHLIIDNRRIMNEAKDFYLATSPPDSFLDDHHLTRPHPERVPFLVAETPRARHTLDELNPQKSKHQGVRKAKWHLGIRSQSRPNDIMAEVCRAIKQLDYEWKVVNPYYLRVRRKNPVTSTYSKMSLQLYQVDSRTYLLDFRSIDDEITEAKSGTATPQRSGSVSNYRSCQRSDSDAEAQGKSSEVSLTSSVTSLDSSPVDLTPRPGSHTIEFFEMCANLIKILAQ

- IC50 [1]: > 67 µM (not active)
- IC50 [2]: 2.55 µM (active)
- IC50 [3]: 11.9 µM (active)
- IC50 [4]: 16.5 µM (active)
Compound: O=C(NNc1cc(N2CCCC2)nc(N2CCCC2)n1)c1ccc([N+](=O)[O-])cc1

- Ki [5]: 2 µM (active)
- Ki [6]: 1.58 µM (active)
- Ki [7]: 2 µM (active)
- Ki [8]: 1.58 µM (active)
- Ki [9]: 3.16 µM (active)
Compound: O=C(Cc1cccs1)Nc1nc2ccccc2s1

Compound: O=S(=O)(O)c1cccc2c(N=Nc3ccc(O)c4ncccc34)cccc12
- AC50 [10]: 206 µM (active)

— ChEMBL document CHEMBL1201862, “PubChem BioAssay data set” (2004)
